Entries after “also recorded” stand apart in the source; their conditions may differ. Like-named read-outs stand apart in the source and are kept apart here.
Assays:
[1] = test system: 5/6 nephrectomized uremic rats; test: Left ventricular hypertrophy in 5/6 nephrectomized uremic rats; type: in vivo, Sprague Dawley rats; details: 5/6 NX rats; for cardiomyocyte morphology: hematoxylin-eosin
Experimental: The experimental conditions using the 5/6 (subtotal) nephrectomized rats were as described above. Twenty-four hours after the last dose, the rats were anesthetized with pentobarbital sodium (35 mg/kg, i.p.). The animals were sacrificed by cervical dislocation. The hearts were taken and washed with cold saline. After removing the residual saline with filter paper, the weight of the freshly dissected hearts and left ventricles were measured, and the ratio of left ventricle weight to body weight (LVW/BW) and/or left ventricle weight to heart weight (LVW/HW) were calculated. Thereafter, the left ventricles were rapidly put into liquid nitrogen until ready for histological and immunohistochemical analysis.
To examine the cardiomyocyte morphology, the left ventricular tissue was fixed in a 4% formaldehyde-phosphate-buffered saline (pH 7.4) solution overnight. The samples were embedded in wax and cut into 4 μm sections. The sections were stained with hematoxylin-eosin and examined under a microscope.
To determine the diameter of cardiomyocytes, a previously published method was followed (Xiang et al., 2005, Am J Physiol Endocrinol Metab 288: E125-132). The sections of left ventricles were stained with FITC-labeled wheat germ agglutinin (1:5 dilution) for 2 h at room temperature and then examined under a fluorescence microscope to visualize the myocyte membrane. The relative size of the cardiomyocytes was quantified by measuring the diameter of the myocytes, which was the distance between the two plasma membranes of a cell in longitudinal section. The measurement was done using ImageJ software. Data were obtained from 30 cells randomly selected from 5-10 microscopic fields of left ventricle slides.
Group mean±SEM are presented. Differences between SHAM, vehicle, and treated animals were assessed using a t-test, a one-way ANOVA followed by a Dunnett's post-hoc test, or a two-way ANOVA, followed by a Bonferonni post-hoc test. Similar to the human CKD condition, the 5/6 (subtotal) nephrectomized rats are known to develop left ventricular hypertrophy (Wolf et al., 2000, Journal of Cardiovascular Pharmacology 36: S348-350). Some animals were sacrificed before treatment to evaluate the development of left ventricular hypertrophy.

thrombospondin-1 = test: Thrombospondin-1 protein in human coronary artery smooth muscle cells (Western blot); type: cell-based; details: HCASMC, 48 h, FIG. 21A
Experimental: Human coronary artery smooth muscle cells (HCASM) were incubated with Vida-5 or Vida-11 at different concentrations for 48 h and then were solubilized in 50 al of SDS-PAGE sample buffer. The protein content in each sample was determined by the bicinchoninic acid protein assay. Samples were resolved by SDS-PAGE using a 4-12% NuPAGE gel, and proteins were electrophoretically transferred to polyvinylidene fluoride membrane for Western blotting. The membrane was blocked for 1 h at 25° C. with 5% nonfat dry milk in phosphate buffered saline Tween-20 (PBS-T) and then incubated with a mouse anti-thrombospondin-1 monoclonal antibody (2,000-fold dilution), or a mouse anti-TM monoclonal antibody (2,000-fold dilution) in PBS-T overnight at 4° C.
The membrane was washed with PBS-T and incubated with a horseradish peroxidase-labeled anti-mouse antibody for 1 h at 25° C. The membrane was then incubated with Amersham ECL Plus Western Blotting Detection Reagents. Specific bands were visualized by the Multiimage II of Alpha Innotech imaging system. Band intensity was quantified using Spot Denso.

[2] = test system: 5/6 nephrectomized uremic rats; test: Serum creatinine, BUN, PTH, phosphorus and calcium in 5/6 nephrectomized uremic rats; type: in vivo, Sprague Dawley rats; details: for effect on BUN / effect on serum PTH / effect on serum calcium / effect on serum creatinine / effect on serum phosphorus: 5/6 NX rats
Experimental: The nephrectomy of male, Sprague Dawley, 5/6 rats was performed using a standard two-step surgical ablation procedure (starting body weight ˜200 gm) as previously described (Slatopolsky et al., 1998, Am J Kidney Dis 32: S40-47). Sham operated rats were used as control. The rats were on a diet containing 1.13% calcium and 0.94% phosphorus. Six weeks after the second surgery, treatment was initiated with vehicle (5% ethanol+95% propylene glycol, 0.4 ml/kg) or test agent by intraperitoneal injection (i.p.), 3 times/week, for two weeks (n≥12 per group). Twenty-four hours after the last dose, retro-orbital venous blood was collected for measurement of PTH and other endpoints.
Calcium, serum phosphorus, creatinine, and blood urea nitrogen (BUN) concentrations were measured by a chemistry analyzer (LX-20, Beckman). Serum PTH was measured using a rat intact parathyroid hormone (i-PTH) ELISA kit. For serum chemistry data, group mean±SEM are presented. A t-test was used to analyze differences between baseline 6W (6 weeks after surgery before treatment) and 8W (8 weeks after surgery after two weeks of compound treatment).

VDR = VDR expression induction in primary culture of human coronary artery smooth muscle cells; type: cell-based; details: HCASMC
Experimental: Compounds were tested in a primary culture of HCASMC to assess their potency in inducing the expression of CYP24A1 and VDR.
Primary culture of HCASMC was grown in smooth muscle growth medium SmGM-2 containing 5.5 mM glucose, 5% FBS, 50 μg/ml gentamicin, 50 ng/ml amphotericin-B, 5 μg/ml insulin, 2 ng/ml hFGF, and 0.5 ng/ml hEGF at 37° C. in a humidified 5% CO2-95% air. Cells were grown to >80% confluence and used within five passages.
Cells were plated into 6 well plates and treated with test agent for 24 h. Cells were lysed with the addition of 1 mL of Trizol and RNA prepared according to the manufacturer's protocol.
Real-time reverse transcription-PCR was performed with the forward and reverse PCR primers and […] of the TAQMAN™ probe specifically designed for CYP24A1 or VDR. (A TAQMAN™ probe is comprised of a fluorophore covalently attached to the 5′-end of the oligonucleotide probe and a quencher at the 3′-end.) After the data acquisition, the CYP24A1 or VDR mRNA expression level was normalized to the GAPDH mRNA level. […] Group mean±STDEV (standard deviation) are presented.

[3] = test system: 5/6 nephrectomized uremic rats; test: Proteinuria in 5/6 nephrectomized uremic rats; type: in vivo, Sprague Dawley rats; details: 5/6 NX rats, 3×/week, i.p. for 2 weeks, before versus after treatment
Experimental: The experimental conditions using the 5/6 (subtotal) nephrectomized rats were as described above. Urinary protein excretion was determined by urinary collection over a period of 24 h in metabolic cages at two time points: 24 h before the first dose and 24 hr after the last dose. Each animal was placed in a metabolic cage and urine was collected during a period of 24 h. Urinary protein concentration was determined by the biuret method (Morozova and Baryshnikova, 1991, Lab Delo 2:23-5). Total protein excretion per day was calculated by multiplying urinary protein concentration by total urine volume produced during the 24 h period.
Group mean±SEM are presented. Differences before versus after treatment were assessed using a t-test. Differences between SHAM, vehicle, and treated animals were assessed using a one-way ANOVA followed by a Dunnett's post-hoc test.

[4] = test system: 5/6 nephrectomized uremic rats; test: Left ventricular hypertrophy in 5/6 nephrectomized uremic rats; type: in vivo, Sprague Dawley rats; details: 5/6 NX rats, 0.16 and 0.64 μg/kg, LVH study
[5] = 2 weeks of treatment, 8 weeks after surgery
[6] = i.p. 3 times/week for two weeks
[7] = 5/6 NX uremic rats, i.p. 3 times/week for two weeks
[8] = 24 h, Table 4 summary, some values average of 2 or more determinations, read-out: EC50 for VDR induction

| effect on serum phosphorus [2, 6] | EC50 (VDR; [8]) | SMILES | effect on LVW/BW (left ventricle weight to body weight) [1, 5] | effect on BUN [2, 6] | effect on serum PTH [2, 6] | effect on serum calcium [2, 6] | effect on serum creatinine [2, 6] | dose at which compound starts to suppress serum PTH [2, 7] | proteinuria (urinary protein concentration and total protein per day) [3] | further results |
| --- | --- | --- | --- | --- | --- | --- | --- | --- | --- | --- |
| did not significantly affect | 0.61 nM | CCC(O)(CC)CCO[C@H](C)C1CCC2/C(=C/C=C3C[C@@H](O)C4(CC4)[C@H](O)C3)CCCC21C (stereo partly drawn) [Vida-10, (4R,8R)-6-((E)-2-((1S,7αS)-1-((R)-1-(3-ethyl-3-hydroxypentyloxy)ethyl)-7α-methyldihydro-1H-inden-4(2H,5H,6H,7H,7αH)-ylidene)ethylidene)spiro[2.5]octane-4,8-diol] | dose-dependent effect on reducing | did not significantly affect | – | – | did not significantly affect | 0.16 µg/kg | – | effect on LVW/BW ([1]; 0.16 and 0.64 μg/kg, FIG. 17): significantly reduced; effect on serum Ca [4]: no effect; fold less potent in raising serum Ca than Vida-11 ([2]; 5/6 NX uremic rats, FIG. 11A): at least 64 fold; fold less potent in suppressing PTH than Vida-11 ([2]; 5/6 NX uremic rats, FIG. 11B): about 16 fold |
| did not show a significant effect | 1.4 nM | C=C1[C@H](O)CC(=C/C=C2\CCCC3(C)C2CCC3[C@@H](C)OCCC(O)(CC)CC)C[C@H]1O (stereo partly drawn) [Vida-11, (1R,3R)-5-((E)-2-((1S,3αS,7αS)-1-((R)-1-(3-ethyl-3-hydroxypentyloxy)ethyl)-7α-methyldihydro-1H-inden-4(2H, 5H, 6H, 7H, 7αH)-ylidene)ethylidene)-2-methylenecyclohexane-1,3-diol] | reduced LVW/BW at the two lower doses, but not at 0.16 μg/kg | no dose-dependent effect | significantly suppress PTH levels in a dose-dependent manner | elevated serum Ca in a dose-dependent manner | no dose-dependent effect | 0.01 µg/kg | reduce proteinuria; also recorded: significantly reduced proteinuria | dose at which compound raises serum Ca [2, 7]: 0.01 µg/kg |

| SMILES | effect on serum phosphorus [2, 6] | EC50 (VDR; [8]) | effect on LVW/BW (left ventricle weight to body weight) [1, 5] | effect on BUN [2, 6] | effect on serum PTH [2, 6] | effect on serum calcium [2, 6] | effect on serum creatinine [2, 6] | dose at which compound starts to suppress serum PTH [2, 7] | proteinuria (urinary protein concentration and total protein per day) [3] | further results |
| --- | --- | --- | --- | --- | --- | --- | --- | --- | --- | --- |
| C=C1[C@H](O)CC(=C/C=C2\CCCC3(C)C2CCC3[C@@H](C)OC[C@H](C)C(C)(C)O)C[C@H]1O (stereo partly drawn) [Vida-5, (1R,3R)-5-((E)-2-((3αS,7αS)-1-((R)-1-((S)-3-hydroxy-2,3-dimethylbutoxy)ethyl)-7α-methyldihydro-1H-inden-4(2H,5H,6H, 7H, 7αH)-ylidene)ethylidene)-2-methylenecyclohexane-1,3-diol] | did not have a significant effect | 3.2 nM | significantly reduces; also recorded: dose-dependent effect on reducing | significantly reduced BUN at the two higher doses (0.16 and 0.64 μg/kg) | significantly suppress PTH levels in a dose-dependent manner | did not have a significant effect | at the 4 lower doses, had no significant effect on serum creatinine, but the highest dose reduced serum creatinine | 0.004 µg/kg | reduce proteinuria; also recorded: significantly reduced proteinuria | cardiomyocyte morphology ([1]; 0.01 μg/kg): improved the morphology of the cardiomyocytes; effect on LVW/BW ([1]; 0.04 μg/kg alone, 3×/week, i.p. for 2 weeks): completely normalized LVW/BW; effect on LVW/BW ([1]; 0.04 μg/kg plus losartan (0.025 mg/ml in drinking water)): completely normalized LVW/BW; cardiomyocyte morphology ([1]; 0.16 μg/kg, 3×/week, i.p. for 2 weeks): nearly restored the morphology of the cardiomyocytes back to the Sham level; cardiomyocyte diameter ([1]; 0.01-0.64 μg/kg, 2 weeks of treatment, FIG. 19): decreases cardiomyocytes diameter; also recorded: significantly reduced; effect on LVW/HW (left ventricle weight to heart weight) [1, 5]: significantly reduces; also recorded: dose-dependent effect on reducing; thrombospondin-1 protein expression (thrombospondin-1): suppress; also recorded: significantly reduced; EC50 (VDR; typical study, FIG. 5B, read-out: EC50 for inducing VDR expression): 1.3 nM |

— patent US20180327354A1, “Unnatural Analogues of Calcitriol and Uses Thereof” (Vidasym, Inc., priority 2009, published 2018)
